The NIST ThermoML archive (doi:10.1016/j.jct.2016.03.026)

Test: xn = mol fraction of the nth substance listed
Settings: Fluid (supercritical or subcritical phases), x1 = 0.97; for mass density: Vibrating tube method; for speed of sound: 293.13 K, Frequency=5 MHz, Pulse-echo method

O=C=O [carbon dioxide] + CO
Settings	mass density [kg/m3]
283.15 K, 19575 kPa	977.29
283.15 K, 19600 kPa	977.43
283.15 K, 19625 kPa	977.51
283.15 K, 19650 kPa	977.66
283.15 K, 19675 kPa	977.74
283.15 K, 19700 kPa	977.89
283.15 K, 19725 kPa	977.97
283.15 K, 19750 kPa	978.07
283.15 K, 19775 kPa	978.19
283.15 K, 19800 kPa	978.31
283.15 K, 19825 kPa	978.42
283.15 K, 19850 kPa	978.49
283.15 K, 19875 kPa	978.64
283.15 K, 19900 kPa	978.72
283.15 K, 19925 kPa	978.84
283.15 K, 19950 kPa	978.96
283.15 K, 19975 kPa	979.04
283.15 K, 20000 kPa	979.19
293.15 K, 6500 kPa	813.14
293.15 K, 6525 kPa	813.39
293.15 K, 6550 kPa	813.83
293.15 K, 6575 kPa	814.36
293.15 K, 6600 kPa	814.85
293.15 K, 6625 kPa	815.37
293.15 K, 6650 kPa	815.85
293.15 K, 6675 kPa	816.32
293.15 K, 6700 kPa	816.75
293.15 K, 6725 kPa	817.24
293.15 K, 6750 kPa	817.7
293.15 K, 6775 kPa	818.19
293.15 K, 6800 kPa	818.69
293.15 K, 6825 kPa	819.09
293.15 K, 6850 kPa	819.56
293.15 K, 6875 kPa	820.02
293.15 K, 6900 kPa	820.51
293.15 K, 6925 kPa	821
293.15 K, 6950 kPa	821.45
293.15 K, 6975 kPa	821.88
293.15 K, 7000 kPa	822.38
293.15 K, 7025 kPa	822.78
293.15 K, 7050 kPa	823.25

Settings	speed of sound [m/s]
20010 kPa	624.7
24930 kPa	674.5
29990 kPa	718.7
34940 kPa	755.3
39990 kPa	791.4
44940 kPa	822.9
49970 kPa	852.5
54900 kPa	879.8
59940 kPa	906
64950 kPa	930.5
69950 kPa	953.8
74980 kPa	976
80020 kPa	997.6
90010 kPa	1037.3
100010 kPa	1074.3
109950 kPa	1108.7
120040 kPa	1141.7
140050 kPa	1201.9
160040 kPa	1256.5
178780 kPa	1303.9
